PubChem BioAssay (NCI)
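Dose response: 5 concentrations. Exposure: 48 h. Format: 96-well plates. Endpoint: linear interpolation; highest concentration if not reached. GI50 marks 50% less growth. At the TGI there is no net growth.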

Tests used:
Assay in all cases: NCI-60 cell line screen, 48 h
OVCAR-3 ovarian = test system: OVCAR-3 ovarian
LOX IMVI melanoma = test system: LOX IMVI melanoma
UACC-62 melanoma = test system: UACC-62 melanoma
RPMI-8226 leukemia = test system: RPMI-8226 leukemia
HS 578T breast = test system: HS 578T breast
MOLT-4 leukemia = test system: MOLT-4 leukemia
PC-3 prostate = test system: PC-3 prostate
OVCAR-8 ovarian = test system: OVCAR-8 ovarian
IGROV1 ovarian = test system: IGROV1 ovarian
HOP-92 NSCLC = test system: HOP-92 NSCLC
MALME-3M melanoma = test system: MALME-3M melanoma
MDA-MB-231 breast = test system: MDA-MB-231 breast
SN12C renal = test system: SN12C renal
BT-549 breast = test system: BT-549 breast
NCI-H226 lung = test system: NCI-H226 lung
NCI/ADR-RES ovarian = test system: NCI/ADR-RES ovarian
EKVX NSCLC = test system: EKVX NSCLC
SW-620 colon = test system: SW-620 colon
OVCAR-5 ovarian = test system: OVCAR-5 ovarian
NCI-H23 lung = test system: NCI-H23 lung
SK-MEL-28 melanoma = test system: SK-MEL-28 melanoma
RXF 393 renal = test system: RXF 393 renal
NCI-H522 lung = test system: NCI-H522 lung
HCC-2998 colon = test system: HCC-2998 colon
ACHN renal = test system: ACHN renal
SK-OV-3 ovarian = test system: SK-OV-3 ovarian
HCT-116 colon = test system: HCT-116 colon
SK-MEL-5 melanoma = test system: SK-MEL-5 melanoma
M14 melanoma = test system: M14 melanoma
SF-539 CNS = test system: SF-539 CNS
SNB-19 CNS = test system: SNB-19 CNS
KM12 colon = test system: KM12 colon
HCT-15 colon = test system: HCT-15 colon
CAKI-1 renal = test system: CAKI-1 renal
MDA-MB-435 = test system: MDA-MB-435
SF-295 CNS = test system: SF-295 CNS
K-562 leukemia = test system: K-562 leukemia
UO-31 renal = test system: UO-31 renal
A498 renal = test system: A498 renal
CCRF-CEM leukemia = test system: CCRF-CEM leukemia
786-0 renal = test system: 786-0 renal
HT29 colon = test system: HT29 colon
HOP-62 NSCLC = test system: HOP-62 NSCLC
SK-MEL-2 melanoma = test system: SK-MEL-2 melanoma
HL-60(TB) leukemia = test system: HL-60(TB) leukemia
A549 NSCLC = test system: A549 NSCLC
TK-10 renal = test system: TK-10 renal
DU-145 prostate = test system: DU-145 prostate
COLO 205 colon = test system: COLO 205 colon
SF-268 CNS = test system: SF-268 CNS
MCF7 breast = test system: MCF7 breast
OVCAR-4 ovarian = test system: OVCAR-4 ovarian
UACC-257 melanoma = test system: UACC-257 melanoma
NCI-H460 lung = test system: NCI-H460 lung
U251 CNS = test system: U251 CNS

C=C1C(=O)O[C@H]2[C@H]1CC/C(COC(=O)c1cc3cc(OC)ccc3[nH]1)=C\CC[C@@]1(C)O[C@@H]21
GI50 (OVCAR-3 ovarian): 935 nM
TGI (OVCAR-3 ovarian): 2150 nM
GI50 (LOX IMVI melanoma): 300 nM
TGI (LOX IMVI melanoma): 1340 nM
GI50 (UACC-62 melanoma): 1380 nM
TGI (UACC-62 melanoma): 2720 nM
GI50 (RPMI-8226 leukemia): 509 nM
TGI (RPMI-8226 leukemia): 3870 nM
GI50 (HS 578T breast): 3090 nM
TGI (HS 578T breast): 11800 nM
GI50 (MOLT-4 leukemia): 1320 nM
TGI (MOLT-4 leukemia): 5210 nM
GI50 (PC-3 prostate): 1830 nM
TGI (PC-3 prostate): 3650 nM
GI50 (OVCAR-8 ovarian): 1580 nM
TGI (OVCAR-8 ovarian): 3370 nM
GI50 (IGROV1 ovarian): 1480 nM
TGI (IGROV1 ovarian): 3170 nM
GI50 (HOP-92 NSCLC): 445 nM
TGI (HOP-92 NSCLC): 1830 nM
GI50 (MALME-3M melanoma): 1610 nM
TGI (MALME-3M melanoma): 3140 nM
GI50 (MDA-MB-231 breast): 1580 nM
TGI (MDA-MB-231 breast): 3200 nM
GI50 (SN12C renal): 1770 nM
TGI (SN12C renal): 3520 nM
GI50 (BT-549 breast): 1060 nM
TGI (BT-549 breast): 2860 nM
GI50 (NCI-H226 lung): 1570 nM
TGI (NCI-H226 lung): 3940 nM
GI50 (NCI/ADR-RES ovarian): 1680 nM
TGI (NCI/ADR-RES ovarian): 4900 nM
GI50 (EKVX NSCLC): 1500 nM
TGI (EKVX NSCLC): 3100 nM
GI50 (SW-620 colon): 647 nM
TGI (SW-620 colon): 2340 nM
GI50 (OVCAR-5 ovarian): 1770 nM
TGI (OVCAR-5 ovarian): 3760 nM
GI50 (NCI-H23 lung): 1490 nM
TGI (NCI-H23 lung): 2970 nM
GI50 (SK-MEL-28 melanoma): 1230 nM
TGI (SK-MEL-28 melanoma): 2610 nM
GI50 (RXF 393 renal): 1140 nM
TGI (RXF 393 renal): 2390 nM
GI50 (NCI-H522 lung): 701 nM
TGI (NCI-H522 lung): 2280 nM
GI50 (HCC-2998 colon): 1540 nM
TGI (HCC-2998 colon): 2910 nM
GI50 (ACHN renal): 817 nM
TGI (ACHN renal): 2120 nM
GI50 (SK-OV-3 ovarian): 4900 nM
TGI (SK-OV-3 ovarian): 17100 nM
GI50 (HCT-116 colon): 425 nM
TGI (HCT-116 colon): 1720 nM
GI50 (SK-MEL-5 melanoma): 1740 nM
TGI (SK-MEL-5 melanoma): 3170 nM
GI50 (M14 melanoma): 1270 nM
TGI (M14 melanoma): 2980 nM
GI50 (SF-539 CNS): 1020 nM
TGI (SF-539 CNS): 2250 nM
GI50 (SNB-19 CNS): 1570 nM
TGI (SNB-19 CNS): 3200 nM
GI50 (KM12 colon): 1540 nM
TGI (KM12 colon): 3330 nM
GI50 (HCT-15 colon): 323 nM
TGI (HCT-15 colon): 1600 nM
GI50 (CAKI-1 renal): 1710 nM
TGI (CAKI-1 renal): 3480 nM
GI50 (MDA-MB-435): 621 nM
TGI (MDA-MB-435): 2030 nM
GI50 (SF-295 CNS): 2420 nM
TGI (SF-295 CNS): 10800 nM
GI50 (K-562 leukemia): 562 nM
TGI (K-562 leukemia): 10800 nM
GI50 (UO-31 renal): 1120 nM
TGI (UO-31 renal): 2370 nM
GI50 (A498 renal): 1630 nM
TGI (A498 renal): 3040 nM
GI50 (CCRF-CEM leukemia): 348 nM
TGI (CCRF-CEM leukemia): 1570 nM
GI50 (786-0 renal): 1270 nM
TGI (786-0 renal): 2680 nM
GI50 (HT29 colon): 351 nM
TGI (HT29 colon): 1470 nM
GI50 (HOP-62 NSCLC): 1640 nM
TGI (HOP-62 NSCLC): 3290 nM
GI50 (SK-MEL-2 melanoma): 1600 nM
TGI (SK-MEL-2 melanoma): 3050 nM
GI50 (HL-60(TB) leukemia): 326 nM
TGI (HL-60(TB) leukemia): 2080 nM
GI50 (A549 NSCLC): 1660 nM
TGI (A549 NSCLC): 3380 nM
GI50 (TK-10 renal): 1280 nM
TGI (TK-10 renal): 2540 nM
GI50 (DU-145 prostate): 1030 nM
TGI (DU-145 prostate): 2190 nM
GI50 (COLO 205 colon): 1180 nM
TGI (COLO 205 colon): 2720 nM
GI50 (SF-268 CNS): 1660 nM
TGI (SF-268 CNS): 3650 nM
GI50 (MCF7 breast): 341 nM
TGI (MCF7 breast): 1740 nM
GI50 (OVCAR-4 ovarian): 1630 nM
TGI (OVCAR-4 ovarian): 3240 nM
GI50 (UACC-257 melanoma): 1610 nM
TGI (UACC-257 melanoma): 3000 nM
GI50 (NCI-H460 lung): 1830 nM
TGI (NCI-H460 lung): 3840 nM
GI50 (U251 CNS): 1600 nM
TGI (U251 CNS): 2950 nM
